Here are results for 7 molecules from patent US20090069418A1, “Compositions and Methods for the Treatment of Disorders Associated with Aberrant Vasodilation” (priority 2007, published 2009).

Where two headings read alike, the source gives them in different places.

Data set [1] is described as follows: Pharmacokinetics of AUDA-BE and its metabolites in plasma after single intraperitoneal injection. It is filed as in vivo, C57Bl/6 mice. As for the experimental part: A second set of animals was injected with sesame oil alone (vehicle). […] (2002) Biochem. Pharmacol., 63:1599-608; Watanabe et al. (2006) Anal. Chim. Acta., 559:37-44). Briefly, blood samples (10 μL) were collected in 1.5 mL Eppendorf microcentrifuge tubes, weighed, and vortexed with 100 μL of purified water. […] Aliquots (10 μL) were analyzed by liquid chromatography coupled mass spectroscopy LC-MS/MS (Watanabe et al. (2006) Anal. Chim. Acta., 559:37-44; Watanabe and Hammock (2001) Anal. Biochem., 299:227-34). The concentration of sEH inhibitors were quantified in extracts using HPLC with positive mode electrospray ionization and tandem mass spectrometry. Analytes were quantified on a 5-point curve with internal standard methods. Surrogate recoveries were evaluated by quantification against the internal standard. Surrogate recoveries were 70% for all reported plasma samples, the analysis of reagent blanks, matrix spikes, and analytical replicates were used to document method stability during this study. […] Differences in infarct size, enzyme activity, and blood flow rates were analyzed with a t-test for two groups and analysis of variance with post hoc Newman-Keuls multiple range test for multiple groups. The pharmacokinetic profile was examined for goodness of fit to a noncompartmental or multicompartmental models. Pharmacokinetic parameters were then obtained by fitting the blood-concentration-time data to a non-compartmental model with the WinNonlin software (Pharsight, Mountain View, Calif., USA), as described previously (Watanabe et al. (2006) Anal. Chim. Acta., 559:37-44). The criterion for statistical significance was set at P<0.05. All values are reported as mean±s.e.m.

Data set [2] in a line: AUDA-BE and its metabolites measured in brain tissue. The conditions noted are these: for levels detected in homogenates of brain tissue: after AUDA-BE injection, methanol/chloroform extraction. It is filed as in vivo, mice. From the text: This concentration was also biologically effective in lowering blood pressure in hypertensive model (Imig et al. (2005) Hypertension 46:975-81). Therefore, in these experiments, the levels of sEH inhibitors in the blood are in the concentration range expected to inhibit the enzyme.

Data set [3] relates to mice. The data set is described as follows: MCAO in mice, infarct size (Example 6). It is filed as in vivo. From the text: Transient focal cerebral ischemia was induced in adult male mice (20 to 26 g body weight) using the intraluminal MCAO technique, as previously described (Alkayed et al. (2001) J. Neurosci., 21:7543-7550). Briefly, mice were anesthetized with halothane (1.5 to 2% in O2-enriched air by face mask), and kept warm with water pads. A small laser-Doppler probe was affixed to skull to monitor cortical perfusion and verify vascular occlusion and reperfusion. A silicone-coated 6-0 nylon monofilament was inserted into the right internal carotid artery (ICA) via the external carotid artery (ECA) until laser-Doppler signal dropped to <30% of baseline. After securing the filament in place, the surgical site was closed, and the animal was awakened and assessed at 2 hours of occlusion for neurological deficit using a simple neurological scoring system as follows: 0=no deficit, 1=failure to extend forelimb, 2=circling, 3=unilateral weakness, 4=no spontaneous motor activity. […] Infarct size was measured at 24 hours after MCAO in 2-mm thick coronal brain sections (5 total) using 2,3,5-triphenyltetrazolium chloride (TTC) staining and digital image analysis. […] Slices were photographed and infracted (unstained) and uninfarcted (red color) areas were measured with MCID software (InterFocus, Linton, England) and integrated across all 5 slices. […]

The test system of data set [4] is mice. It is filed as in vivo. An excerpt: Male mice between the ages of 16-24 weeks were anesthetized with isoflurane (induction 4-5 vol %; maintenance 1-2 vol %), intubated with a 20G plastic IV catheter, and mechanically ventilated using a rodent ventilator (Inspira, volume-controlled, Harvard Apparatus, MA). ECG and rectal temperature were continuously monitored using a PC-based recording device (PowerLab 8/30, ADInstruments, Colorado Springs, Colo.). The animals were positioned in a right lateral decubital position on a heating pad and rectal temperature was maintained at 37° C. throughout the experiment. A PE-10 catheter was inserted into the left jugular vein for intravenous drug infusion. Using a dissecting microscope, a left-sided thoracotomy was performed in the 4th intercostal space. […] A ligature (8-0 Monosof MV-135-4, ⅜ 5 mm tapered needle, Syneture, Norwalk, Colo.) was placed around the left coronary artery (LCA) approximately 2 mm distal to the left atrial margin. The suture was fed through a short section of PE-10 tubing to form a snare to allow temporary occlusion. The LCA was occluded for 40 minutes; occlusion was confirmed by persistent ECG changes during occlusion and visual paling of the left ventricle (LV). After 40 minutes the snare was released and reperfusion was confirmed with visual hyperemia of the LV and return of the ECG changes. After 2 hours of reperfusion the LCA was re-occluded and fluorescent polymer microspheres (0.4% solution, diameter 1-10 μm; Duke Scientific Corporation, Palo Alto, Calif.) were infused via needle puncture of the LV apex. […] Heart was then excised, rinsed in normal saline, and the right and left atria were removed under the dissecting microscope. The remaining left and right ventricles were weighed and then sliced into seven sections (d=1 mm) for imaging and staining.
Heart sections were immediately photographed with a digital camera (Canon Powershot A620) under UV light for determination of AAR. Infarct size (I) was determined by staining the heart sections in 1% 2,3,5 triphenyltetrazolium chloride (TTC) in phosphate buffer at pH 7.4 for 10 minutes, followed by 10% neutral buffered formalin (NBF) bath overnight. Pictures were taken the next day under full spectrum light. TTC stained non-infarcted myocardium red, while infarcted myocardium remained white. Both AAR and I areas were calculated in a blinded fashion using standard imaging software (Photoshop Elements 4). A calibration ruler was present in each picture to convert pixels into volume. TTC slices were volume corrected for dehydration following formalin immersion.
The 14,15-EET was obtained from BIOMOL (Plymouth Meeting, Pa.). It was dissolved in a vehicle composed of 100% ethanol and saline (1:3), resulting in a final ethanol solution of 25%. […] SNC-162, a non-peptide δ-opioid receptor agonist, was used for comparison of the magnitude of cardioprotection found within the epoxide pathway. SNC-162 (0.1 μg/g iv over 10 minutes) was dissolved in 10% DMSO.

The test system of data set [5] is neonatal murine cardiomyocytes. Description: Oxygen-glucose deprivation of cultured cardiomyocytes transduced with TAT-hsEH, cell death by propidium iodide. It is filed as cell-based. The conditions noted are these: for cell survival after OGD: all polymorphisms/groups tested except Arg287Gln. As for the experimental part:
Post natal Day 7-8 C57BL\6 mice were used. 3-4 hearts were obtained from same-gender mice. Cells were dissociated with 0.625% wt/volume trypsin in Ca^2+ and Mg^2+ free HBSS. The cells were centrifuged and re-suspended in FBS-M199. Cells were supplemented with estrogen-free 15% FBS, 100 U/ml penicillin, 100 μg/ml streptomycin, and 25 μM cytosine arabinoside. The cells were then plated at 37° C. for 1 hour under a water-saturated atmosphere of 5% CO2-[…]. Suspended cells were collected and plated at 1.0×10^5 cells/cm^2 and incubated as above for 24 hours.
Six TAT-hsEH fusion proteins, including one wild type and five EPHX2 mutants (Lys55Arg, Arg103Cys, Cys154Tyr, Arg287Gln, and Arg103Cys/Arg287Gln), were expressed and purified as reported (Koerner et al. (2007) J. Neurosci., 27:4642-4649).
TAT-hsEH fusion proteins were added to the medium of cultured cardiomyocytes to the final concentration of 100 nM. The cells were incubated at 37° C. for 24 hours before the onset of oxygen-glucose deprivation.
For oxygen-glucose deprivation (OGD), cells were placed in a Plexiglas hypoxia chamber under 100% N2 at 37° C. and glucose-free medium (MEM/HBSS). For reoxygenation, cells were placed in 21% O2 (5% CO2) and glucose-replete FBS-M199 medium.
Cell death was assessed via propidium iodide (PI, 5 μM) with >300 cells/sample.
Cultured neonatal murine cardiomyocytes were transduced with five human EPHX2 variants linked to the protein transduction domain TAT. Cultures were subjected to 1.5 hours of oxygen and glucose deprivation followed by 3 hours of re-oxygenation, with or without sEH substrate 14,15-EET. Cell death was assessed by propidium iodide (% of all cells, mean±SEM, n=5-9 replicates). Successful transduction was confirmed by immunoblot. All mutants reduced cell death compared to the human wild-type EPHX2 (rh-sEHWT, 63±1%), but only the Arg287Gln mutations was different from untransduced controls (FIG. 13B).

Data set [6] has as its system C57Bl/6 mice. Description: Middle cerebral artery occlusion in mice, infarct size (Example 2). The conditions noted are these: MS-PPOH alone. It is filed as in vivo. As for the experimental part: (2001) J. Neurosci., 21:7543-50). […] A small laser-Doppler probe was affixed to the skull to monitor cortical perfusion and verify vascular occlusion and reperfusion. […] After securing the filament in place, the surgical site was closed, and the animal was awakened and assessed at 2 hours of occlusion for neurological deficit using a simple neurological scoring system as follows: 0=no deficit, 1=failure to extend forelimb, 2=circling, 3=unilateral weakness, 4=no spontaneous motor activity. Mice with clear neurological deficit were re-anesthetized, laser-Doppler probe re-positioned over same site on the skull, and the occluding filament was withdrawn to allow for reperfusion. Mice were then allowed to recover and observed for 1 day. […] Slices were photographed, and infarcted (unstained) and uninfarcted (red color) areas were measured with MCID software (InterFocus Imaging Ltd, Linton, UK) and integrated across all five slices. To account for the effect of edema, the infarcted area was estimated indirectly by subtracting the uninfarcted area in the ipsilateral hemisphere from the contralateral hemisphere, and expressing infarct volume as a percentage of contralateral hemisphere. […] (2000) J. Physiol. Pharmacol., 51:655-72). […] Animals were randomly assigned to treatment groups.

[7] abbreviates: AUDA-BE 10 mg/kg intraperitoneal.
The mark [8] stands for this setting: single injection of 10 mg/kg AUDA-BE.
Setting [9] is: given prior to LCA occlusion (PRE).

For the molecule `O=C(O)CCCCCCCCCCCNC(=O)NC12CC3CC(CC(C3)C1)C2` [AUDA, 12-(3-adamantan-1-yl-ureido)-dodecanoic acid], in data set [1] (setting [7]), the “peak concentration in plasma” value is reported as 52 nmol/L and the “time of peak concentration in plasma” value stood at 1 h. Moreover, the “half time of elimination in plasma” value in data set [1] (AUDA-BE 10 mg/kg intraperitoneal, non-compartmental model) was 7 h. The “maximum concentration in plasma” value in data set [1] (AUDA-BE 40 mg/kg intraperitoneal, within the first hour) was 4 µmol/L. Moreover, the MRT in data set [1] (C57Bl/6, mouse, plasma, ip, 10 mg/kg, read-out: mean residence time in plasma) is 9 h. In addition, in data set [2] (C57Bl/6, mouse, brain, intraperitoneal, 10 mg/kg, read-out: mean residence time in brain), the MRT amounted to 6 h. In addition, in data set [2], the “levels detected in homogenates of brain tissue” value was “significant levels”. Further, in data set [2] (setting [8]), the “half-time elimination in brain” value is 4 h and the “time to maximum concentration in brain” value is no more than 3 h.
With `CCCCCC1OC1CCCCCCC/C=C\CCCC(=O)O` (stereo not shown) [14,15-EEZE, 14,15-epoxyeicosa-5(Z)-enoic acid], in data set [3] (sEHKO mice, 10 μg over 24 hours via minipump, mean±SD, vehicle-treated sEHKO 9.1±9.5), the “infarct size after MCAO” value turned out to be 9.4±12.4.
In the case of “12-(3-adamantan-1-yl-ureido)-butyl acid [AUBA]”, the “levels detected in homogenates of brain tissue” value in data set [2] is on record as “not”.
As to `C=CCN1C[C@H](C)N([C@@H](c2ccccc2)c2ccc(C(=O)N(CC)CC)cc2)C[C@H]1C` [SNC-162], the “Infarct Volume” value in data set [4] (setting [9]) was 9 ± 2 mm^3.
Regarding `CCCCCC1OC1C/C=C\C/C=C\C/C=C\CCCC(=O)O` (stereo not shown) [14,15-EET], the “infarct size after MCAO” value in data set [3] (14,15-EET 1 μg over 24 hours via osmotic minipump, jugular vein, vehicle 34.5±8.6%) is recorded as 10.9±4.3%. For the same molecule, the “Infarct Volume” value in data set [4] (PRO (given prior to reperfusion)) is given as 12 ± 2 mm^3. In addition, the “infarct size after myocardial I/R compared to vehicle” value in data set [4] (given before ischemia or before reperfusion) is reported as “significantly reduced”. Further, the “Infarct Volume” value in data set [4] (setting [9]) turned out to be 10 ± 1 mm^3. In data set [4] (mouse, in vivo), the “bleeding in pilot studies following heparin administration” value is listed as “excessive bleeding” and the “reducing I/AAR, injection prior to reperfusion compared to pre-ischemic delivery” value was “less effective”. Moreover, the “cell survival after OGD” value in data set [5] was “improved cell survival”. In addition, the “cell death (propidium iodide, % of all cells)” value in data set [5] (excess 14,15-EET (1 μM) in Arg287Gln-transduced cardiomyocytes, 1.5 hours OGD, 3 hours re-oxygenation) stood at 45±1%.
`C#CCOc1ccccc1CCCCCC(=O)NS(C)(=O)=O` [MS-PPOH, N-methylsulfonyl-6-(2-propargyloxyphenyl)hexanamide]: the “infarct size after MCAO” value in data set [6] is given as 24±6%.
As to `O=C(c1ccccc1)C1OC1c1ccc(-c2ccccc2)cc1` (stereo not shown) [4-PCO, 4-phenylchalcone oxide], the “cell survival after OGD” value in data set [5] is “improved cell survival significantly”.
